The text below walks through data of article PMC6188150, “A small molecule regulator of tissue transglutaminase conformation inhibits the malignant phenotype of cancer cells” (Oncotarget, 2018).

SMILES strings stand for the structures.

This assay deals with T1, tissue transglutaminase (tTG) (Homo sapiens, UniProt P21980).
T1 construct: gene TGM2; recombinant tTG
T1 sequence (P21980 2-687): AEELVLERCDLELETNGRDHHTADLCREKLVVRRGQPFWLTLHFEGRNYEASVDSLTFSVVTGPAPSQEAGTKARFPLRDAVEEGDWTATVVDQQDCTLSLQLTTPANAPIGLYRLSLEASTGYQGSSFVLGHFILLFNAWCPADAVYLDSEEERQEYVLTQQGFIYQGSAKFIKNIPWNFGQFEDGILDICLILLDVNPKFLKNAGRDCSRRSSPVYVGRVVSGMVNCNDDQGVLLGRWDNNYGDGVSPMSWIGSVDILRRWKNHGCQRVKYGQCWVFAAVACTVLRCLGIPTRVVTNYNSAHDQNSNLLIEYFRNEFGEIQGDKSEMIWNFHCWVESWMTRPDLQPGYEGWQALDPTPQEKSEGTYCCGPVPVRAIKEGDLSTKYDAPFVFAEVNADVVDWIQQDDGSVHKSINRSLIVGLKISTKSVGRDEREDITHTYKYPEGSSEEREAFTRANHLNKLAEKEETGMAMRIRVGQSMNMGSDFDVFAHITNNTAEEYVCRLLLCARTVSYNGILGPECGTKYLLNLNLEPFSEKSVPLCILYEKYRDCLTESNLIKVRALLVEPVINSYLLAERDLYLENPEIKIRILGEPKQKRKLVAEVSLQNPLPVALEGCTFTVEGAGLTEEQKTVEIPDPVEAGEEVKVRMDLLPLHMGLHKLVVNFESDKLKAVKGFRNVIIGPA
The assay is described as follows: bodipy-GTP-γS fluorescence binding assay after CaCl2 then EDTA; also BPA/NNDC crosslinking inhibition and trypsin susceptibility.

As a reminder, the EC50 is the concentration needed to bring the measured effect to its halfway point. For the compound `Cc1ccc(N/C=C2/C(=O)NC(=O)N(c3ccccc3)C2=O)cc1CN1C(=O)c2ccccc2C1=O` [TTGM 5826], a half-maximal response (EC50) required 20 µM.
